The values that follow come from patent US4970215A, “Substituted 4-(quinolin-2-yl-methoxy)phenyl-acetic acid derivatives and anti-allergic use thereof” (Bayer Aktiengesellschaft, priority 1988, dated 1990).

In this experiment the test system is lipoxygenase. Put plainly: Lipoxygenase inhibition: release of leucotriene B4 (LTB4) from polymorphonuclear rat leucocytes (PMN) after Ca-ionophor, reverse phase HPLC. Format: cell-based. The settings on record: RP-HPLC, read-out: LO inhibition IC50. As for the experimental part: The release of leucotriene B4 (LTB4) from polymorphonuclear rat leucocytes (PMN) following addition of substances and a Ca-ionophor was determined by means of reverse phase HPLC by the method of Borgeat, P. et al., Proc. Nat. Acad. Sci. (USA) 76, 2148-2152 (1979) as a measure of lipoxygenase inhibition. The values achieved in this test with some compounds according to the invention are listed by way of example in Table 1: […]

One may read the IC50 as the concentration needed to halve the response being measured. For the molecule `O=C(O)C(CC1CCCCC1)c1ccc(OCc2ccc3ccccc3n2)cc1` (stereo not drawn) [Example 8, 2-[4-(Quinolin-2-yl-methoxy)phenyl]-3-cyclohexylpropionic acid], the IC50 stood at 10 nM.

Take `O=C(O)C(CC1CC1)c1ccc(OCc2ccc3ccccc3n2)cc1` (stereo not drawn) [Example 7, 2-[4-(Quinolin-2-yl-methoxy)phenyl]-3-cyclopropylpropionic acid]: the IC50 was 140 nM. The value for `O=C(O)C(c1ccc(OCc2ccc3ccccc3n2)cc1)C1CCCC1` (stereo not drawn) [Example 9, 2-[4-(Quinolin-2-yl-methoxy)phenyl]-2-cyclopentylacetic acid] was 40 nM.
